US20260022142A1, “MACROCYCLIC IMMUNOMODULATORS” (Bristol-Myers Squibb Company, priority 2022, published 2026)
Numbered stars: 1 amine (or outer) side, 2 acyl side, 3 side chain; on linkers, the order of the positions; unused ones are H or OH. Bridge positions count the residues as written; N and C are the ends. Square brackets hold non-standard residues; d marks the D form. Peptide text beside a SMILES is read from it. * marks the point of attachment. ξ: configuration not given here. Phe(3-CF3) = N[C@@H](Cc1cccc(C(F)(F)F)c1)C(=O)O; Phe(4-COOH) = N[C@@H](Cc1ccc(C(=O)O)cc1)C(=O)O; Bip = N[C@@H](Cc1ccc(-c2ccccc2)cc1)C(=O)O; Phe(4-NH2) = Nc1ccc(C[C@H](N)C(=O)O)cc1; Phe(3-Me) = Cc1cccc(C[C@H](N)C(=O)O)c1; X5 = CC(C)(CCN)[C@H](N[*:1])C(=O)[*:2]; γGlu = O=C(O)[C@H](CCC(=O)[*:2])N[*:1]; NH(CH2)12COOH = O=C(O)CCCCCCCCCCCCN*; Val(3-F) = CC(C)(F)[C@H](N)C(=O)O; 4Pal = N[C@@H](Cc1ccncc1)C(=O)O; Cha = N[C@@H](CC1CCCCC1)C(=O)O; Cit = NC(=O)NCCC[C@H](N)C(=O)O; Thr(3ξ) = CC(O)[C@H](N)C(=O)O; Carboxymethyl = O=C(O)C*; Orn = NCCC[C@H](N)C(=O)O; Aun = NCCCCCCCCCCC(=O)O; Dab = NCC[C@H](N)C(=O)O; Dap = NC[C@H](N)C(=O)O; AEEA = NCCOCCOCC(=O)O; Piv = CC(C)(C)C(=O)*; ξV = CC(C)C(N)C(=O)O

biological target: T1, PD-1/PD-L1 interaction (PE-labeled human PD-L1-Ig binding to Jurkat cell line over-expressing human PD-1) (Homo sapiens, UniProt Q15116); experiment: Jurkat-PD-1 Cell Binding High-Content Screening Assay (CBA); assay type: cell-based; settings: Jurkat cell line over-expressing human PD-1; PE-labeled PD-L1-Ig 20 nM final; read-out: Jurkat hPD1-PDL1 IC50
T1 construct: expressed in transfected cells; host or cells: Jurkat
Outline: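 Jurkat cells stably over-expressing human PD-1 were seeded in DMEM with 10% fetal calf serum and pre-incubated with compound for 2 h at 37° C. PE-labeled human PD-L1-Ig was then added at 20 nM final for 1 hour, after which cells were fixed with paraformaldehyde, Hoechst-stained and imaged by high-content microscopy.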

T1 sequence (Q15116 25-288): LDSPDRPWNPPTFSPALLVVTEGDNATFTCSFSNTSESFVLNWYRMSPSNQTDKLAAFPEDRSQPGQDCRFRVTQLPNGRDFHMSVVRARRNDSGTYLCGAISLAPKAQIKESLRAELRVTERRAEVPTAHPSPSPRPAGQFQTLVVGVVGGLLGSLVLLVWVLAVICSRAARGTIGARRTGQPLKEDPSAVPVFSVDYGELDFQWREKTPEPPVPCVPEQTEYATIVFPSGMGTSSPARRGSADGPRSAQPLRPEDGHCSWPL

Structure (SMILES)	IC50
Cc1cccc(C[C@@H]2NC(=O)[C@H](CC(=O)O)NC(=O)[C@H](Cc3ccc(OCC(=O)O)cc3)NC(=O)[C@H](CCCNC(=N)N)NC(=O)CSC[C@@H](C(=O)N[C@@H](CCN)C(=O)NCCCCCCCCCCC(=O)O)NC(=O)[C@H](C(C)(C)CCN)NC(=O)C(C(C)C)NC(=O)[C@H](CC3CCCCC3)NC(=O)[C@H](CCN)NC(=O)[C@@H](CC(C)C)NC(=O)[C@H](CCCN)NC(=O)[C@H](Cc3ccc(OCC(=O)O)cc3)NC(=O)[C@H](Cc3ccc(-c4ccccc4)cc3)NC(=O)[C@H](Cc3ccc(O)cc3)NC2=O)c1 (stereo partly drawn) [Compound 2118] ({CH2CO}-RY(Carboxymethyl)D[Phe(3-Me)]Y[Bip]Y(Carboxymethyl)[Orn][dL][Dab][Cha][ξV][X5]C[Dab][Aun]-OH; thioether N-14)	126 nM
CSCC[C@@H]1NC(=O)[C@H](Cc2ccc(-c3ccccc3)cc2)NC(=O)[C@H](C(C)C)NC(=O)[C@H](Cc2cccc(C)c2)NC(=O)[C@H](CC(=O)O)NC(=O)[C@H](Cc2ccc(OCC(=O)O)cc2)NC(=O)[C@H](CCCNC(=N)N)NC(=O)CSC[C@@H](C(=O)N[C@@H](CCN)C(=O)NCCCCCCCCCCC(=O)O)NC(=O)[C@H](CCC(N)=O)NC(=O)[C@H](C(C)C)NC(=O)[C@H](CC2CCCCC2)NC(=O)[C@H](CCN)NC(=O)[C@@H](CC(C)C)NC(=O)[C@H](CCCN)NC1=O [Compound 3385] ({CH2CO}-RY(Carboxymethyl)D[Phe(3-Me)]V[Bip]M[Orn][dL][Dab][Cha]VQC[Dab][Aun]-OH; thioether N-14)	16.5 nM
Cc1cccc(C[C@@H]2NC(=O)[C@H](CC(=O)O)NC(=O)[C@H](Cc3ccc(OCC(=O)O)cc3)NC(=O)[C@H](CN)NC(=O)CSC[C@@H](C(=O)N[C@@H](CCN)C(=O)NCCOCCOCC(=O)NCCCCCCCCCCC(=O)O)NC(=O)[C@H](CCC(=O)O)NC(=O)[C@H](C(C)C)NC(=O)[C@H](Cc3cccc(C)c3)NC(=O)[C@H](CCN)NC(=O)[C@@H](CC(C)C)NC(=O)[C@H](CCCN)NC(=O)[C@H](Cc3ccc(OCC(=O)O)cc3)NC(=O)[C@H](Cc3ccc(-c4ccccc4)cc3)NC(=O)[C@H](Cc3ccc(C(=O)O)cc3)NC2=O)c1 [Compound 1271] ({CH2CO}-[Dap]Y(Carboxymethyl)D[Phe(3-Me)][Phe(4-COOH)][Bip]Y(Carboxymethyl)[Orn][dL][Dab][Phe(3-Me)]VEC[Dab][AEEA][Aun]-OH; thioether N-14)	19.9 nM
CC(C)C[C@H]1NC(=O)[C@H](CCCN)NC(=O)[C@H](Cc2ccc(O)cc2)NC(=O)[C@H](Cc2ccc(-c3ccccc3)cc2)NC(=O)[C@H](Cc2ccc(O)cc2)NC(=O)[C@H](Cc2c[nH]c3ccccc23)NC(=O)[C@H](CC(=O)O)NC(=O)[C@H](Cc2ccc(OCC(=O)O)cc2)NC(=O)[C@H](Cc2ccc(OCC(=O)O)cc2)NC(=O)CSC[C@@H](C(=O)N[C@@H](CCN)C(=O)NCCCCCCCCCCC(=O)O)NC(=O)[C@H](CCCN)NC(=O)[C@H](Cc2ccc(O)cc2)NC(=O)[C@H](CC2CCCCC2)NC(=O)[C@H](CCN)NC1=O [Compound 2513] ({CH2CO}-Y(Carboxymethyl)Y(Carboxymethyl)DWY[Bip]Y[Orn][dL][Dab][Cha]Y[Orn]C[Dab][Aun]-OH; thioether N-14)	81.3 nM
CC[C@H](C)[C@@H]1NC(=O)[C@H](Cc2ccc(-c3ccccc3)cc2)NC(=O)[C@H](C(C)C)NC(=O)[C@H](Cc2cccc(C)c2)NC(=O)[C@H](CC(=O)O)NC(=O)[C@H](Cc2ccc(OCC(=O)O)cc2)NC(=O)[C@H](CN)NC(=O)CSC[C@@H](C(=O)N[C@@H](CCCCN)C(=O)NCCOCCOCC(=O)NCCCCCCCCCCC(=O)O)NC(=O)[C@H](CN)NC(=O)[C@H](C(C)C)NC(=O)[C@H](CC2CCCCC2)NC(=O)[C@H](CCN)NC(=O)[C@@H](CC(C)C)NC(=O)[C@H](CCCN)NC1=O [Compound 2650] ({CH2CO}-[Dap]Y(Carboxymethyl)D[Phe(3-Me)]V[Bip]I[Orn][dL][Dab][Cha]V[Dap]CK[AEEA][Aun]-OH; thioether N-14)	11.5 nM
CC(C)C[C@H]1NC(=O)[C@H](CCCN)NC(=O)[C@H](Cc2ccc(OCC(=O)O)cc2)NC(=O)[C@H](Cc2ccc(-c3ccccc3)cc2)NC(=O)[C@H](Cc2ccc(C(=O)O)cc2)NC(=O)[C@H](Cc2cccc(C(F)(F)F)c2)NC(=O)[C@H](CC(=O)O)NC(=O)[C@H](Cc2ccc(OCC(=O)O)cc2)NC(=O)[C@H](C(C)O)NC(=O)CSC[C@@H](C(=O)N[C@@H](CCN)C(=O)NCCOCCOCC(=O)N[C@@H](CCC(=O)NCCOCCOCC(=O)NCCCCCCCCCCCCC(=O)O)C(=O)O)NC(=O)[C@H](CCC(=O)O)NC(=O)[C@H](C(C)C)NC(=O)[C@H](CC2CCCCC2)NC(=O)[C@H](CCN)NC1=O (stereo partly drawn) [Compound 3902] ({CH2CO}-[Thr(3ξ)]Y(Carboxymethyl)D[Phe(3-CF3)][Phe(4-COOH)][Bip]Y(Carboxymethyl)[Orn][dL][Dab][Cha]VEC[Dab][AEEA][γGlu][AEEA]-{NH(CH2)12COOH}; thioether N-14)	67.2 nM
Cc1cccc(C[C@@H]2NC(=O)[C@H](CC(=O)O)NC(=O)[C@H](Cc3ccc(OCC(=O)O)cc3)NC(=O)[C@H](CCNC(=O)C(C)(C)C)NC(=O)CSC[C@@H](C(=O)N[C@@H](CCN)C(=O)NCCCCCCCCCCC(=O)O)NC(=O)[C@H](CCC(N)=O)NC(=O)[C@H](C(C)(C)F)NC(=O)[C@H](CC3CCCCC3)NC(=O)[C@H](CCN)NC(=O)[C@@H](CC(C)C)NC(=O)[C@H](CCCN)NC(=O)[C@H](Cc3ccc(OCC(=O)O)cc3)NC(=O)[C@H](Cc3ccc(-c4ccccc4)cc3)NC(=O)[C@H](Cc3ccc(OCC(=O)O)cc3)NC2=O)c1 [Compound 2156] ({CH2CO}-[Dab](Piv)Y(Carboxymethyl)D[Phe(3-Me)]Y(Carboxymethyl)[Bip]Y(Carboxymethyl)[Orn][dL][Dab][Cha][Val(3-F)]QC[Dab][Aun]-OH; thioether N-14)	9.8 nM
Cc1cccc(C[C@@H]2NC(=O)[C@H](CC(=O)O)NC(=O)[C@H](Cc3ccc(OCC(=O)O)cc3)NC(=O)[C@H](C(C)O)NC(=O)CSC[C@@H](C(=O)N[C@H](CC(N)=O)C(=O)NCCCCCCCCCCC(=O)O)NC(=O)[C@H](CCCN)NC(=O)[C@H](C(C)C)NC(=O)[C@H](CC3CCCCC3)NC(=O)[C@H](CCN)NC(=O)[C@@H](CC(C)C)NC(=O)[C@H](CCCN)NC(=O)[C@H](CCCNC(N)=O)NC(=O)[C@H](Cc3ccc(-c4ccccc4)cc3)NC(=O)[C@H](C(C)C)NC2=O)c1 (stereo partly drawn) [Compound 3312] ({CH2CO}-[Thr(3ξ)]Y(Carboxymethyl)D[Phe(3-Me)]V[Bip][Cit][Orn][dL][Dab][Cha]V[Orn]C[dN][Aun]-OH; thioether N-14)	4.4 nM

Continued, values first:

IC50	Structure (SMILES)
28 nM	Cc1cccc(C[C@@H]2NC(=O)[C@H](CC(=O)O)NC(=O)[C@H](Cc3ccncc3)NC(=O)[C@H](Cc3ccc(OCC(=O)O)cc3)NC(=O)CSC[C@@H](C(=O)NCCOCCOCC(=O)N[C@@H](CCCN)C(=O)NCCCCCCCCCCC(=O)O)NC(=O)[C@H]([C@@H](C)O)NC(=O)[C@H](C(C)C)NC(=O)[C@H](CC3CCCCC3)NC(=O)[C@H](CCN)NC(=O)[C@@H](CC(C)C)NC(=O)[C@H](CCCN)NC(=O)[C@H](C(C)C)NC(=O)[C@H](Cc3ccc(-c4ccccc4)cc3)NC(=O)[C@H](C(C)C)NC2=O)c1 [Compound 1171] ({CH2CO}-Y(Carboxymethyl)[4Pal]D[Phe(3-Me)]V[Bip]V[Orn][dL][Dab][Cha]VTC[AEEA][Orn][Aun]-OH; thioether N-14)
9.3 nM	Cc1cccc(C[C@@H]2NC(=O)[C@H](CC(=O)O)NC(=O)[C@H](Cc3ccc(OCC(=O)O)cc3)NC(=O)[C@H](CN)NC(=O)CSC[C@@H](C(=O)N[C@@H](CCN)C(=O)NCCOCCOCC(=O)NCCCCCCCCCCC(=O)O)NC(=O)[C@H](CCC(=O)O)NC(=O)[C@H](C(C)C)NC(=O)[C@H](Cc3ccccc3)NC(=O)[C@H](CCN)NC(=O)[C@@H](CC(C)C)NC(=O)[C@H](CCCN)NC(=O)[C@H](Cc3ccc(OCC(=O)O)cc3)NC(=O)[C@H](Cc3ccc(-c4ccccc4)cc3)NC(=O)[C@H](Cc3ccc(OCC(=O)O)cc3)NC2=O)c1 [Compound 1261] ({CH2CO}-[Dap]Y(Carboxymethyl)D[Phe(3-Me)]Y(Carboxymethyl)[Bip]Y(Carboxymethyl)[Orn][dL][Dab]FVEC[Dab][AEEA][Aun]-OH; thioether N-14)
7.4 nM	Cc1cccc(C[C@@H]2NC(=O)[C@H](CC(=O)O)NC(=O)[C@H](Cc3ccc(OCC(=O)O)cc3)NC(=O)[C@H](CN)NC(=O)CSC[C@@H](C(=O)N[C@@H](C)C(=O)NCCOCCOCC(=O)NCCCCCCCCCCC(=O)O)NC(=O)[C@H]([C@@H](C)O)NC(=O)[C@H](C(C)C)NC(=O)[C@H](CC3CCCCC3)NC(=O)[C@H](CCN)NC(=O)[C@@H](CC(C)C)NC(=O)[C@H](CCCN)NC(=O)[C@H](CCCNC(N)=O)NC(=O)[C@H](Cc3ccc(-c4ccccc4)cc3)NC(=O)[C@H](C(C)C)NC2=O)c1 [Compound 1029] ({CH2CO}-[Dap]Y(Carboxymethyl)D[Phe(3-Me)]V[Bip][Cit][Orn][dL][Dab][Cha]VTCA[AEEA][Aun]-OH; thioether N-14)
38 nM	CC(=O)Nc1ccc(C[C@@H]2NC(=O)[C@H](Cc3cccc(C)c3)NC(=O)[C@H](CC(=O)O)NC(=O)[C@H](Cc3ccc(OCC(=O)O)cc3)NC(=O)[C@H](CN)NC(=O)CSC[C@@H](C(=O)N[C@@H](CCN)C(=O)NCCCCCCCCCCC(=O)O)NC(=O)[C@H](C(C)O)NC(=O)[C@H](C(C)C)NC(=O)[C@H](CC3CCCCC3)NC(=O)[C@H](CCN)NC(=O)[C@@H](CC(C)C)NC(=O)[C@H](CCCN)NC(=O)[C@H](Cc3ccc(NC(C)=O)cc3)NC(=O)[C@H](Cc3ccc(-c4ccccc4)cc3)NC2=O)cc1 (stereo partly drawn) [Compound 3601] ({CH2CO}-[Dap]Y(Carboxymethyl)D[Phe(3-Me)][Phe(4-NH2)](Ac)[Bip][Phe(4-NH2)](Ac)[Orn][dL][Dab][Cha]V[Thr(3ξ)]C[Dab][Aun]-OH; thioether N-14)
